Measured values taken from patent US12186401B2, “Amide-based proteolysis modulators of B-rapidly accelerated fibrosarcoma (BRAF) and associated uses” (Ontario Institute for Cancer Research (OICR), priority 2019, dated 2025).
Where two headings read alike, the source gives them in different places.

Legend:
B-Raf (V600E) (h) = B-Raf (V600E) (h) (Homo sapiens, UniProt P15056, V600E); test: Kinase inhibition assay B-Raf (V600E) (h), radiometric 33P-ATP filter assay; type: biochemical; details: read-out: IC50(nM) BRAF^V600E
Protocol: (§1) b-Raf (V599E) (h) was incubated with 25 mM Tris/HCl pH 7.5, 0.2 mM EGTA, 10 mM DTT, 0.01% Triton X-100, 0.5 mM, sodium orthovandate, 0.5 mM […], 1% glycerol, 34 nM unactive MEK1, 69 nM unactive MAPK2, 0.5 mg/mL myelin basic protein, and 10 mM Magnesium acetate and […] (specific activity and concentration as required). The reaction was initiated by the addition of the Mg/ATP mix. After incubation for 40 minutes at room temperature, the reaction was stopped by the addition of phosphoric acid to a concentration of 0.5%. 10 μL of the reaction was then spotted onto a P30 filtermat and washed four times for 4 minutes in 0.425% phosphoric acid and once in methanol prior to drying and scintillation counting. Similar protocols were used for other kinase assays employing the kinase of interest to generate the data in Table 1.

CRAF [1] = target: T1, CRAF (Homo sapiens, UniProt P04049); test: Kinase inhibition assay CRAF (similar protocol); type: biochemical
Protocol: as §1

ARAF [2] = target: T2, ARAF (Homo sapiens, UniProt P10398); test: Kinase inhibition assay ARAF (similar protocol); type: biochemical
T2 sequence (P10398 1-606): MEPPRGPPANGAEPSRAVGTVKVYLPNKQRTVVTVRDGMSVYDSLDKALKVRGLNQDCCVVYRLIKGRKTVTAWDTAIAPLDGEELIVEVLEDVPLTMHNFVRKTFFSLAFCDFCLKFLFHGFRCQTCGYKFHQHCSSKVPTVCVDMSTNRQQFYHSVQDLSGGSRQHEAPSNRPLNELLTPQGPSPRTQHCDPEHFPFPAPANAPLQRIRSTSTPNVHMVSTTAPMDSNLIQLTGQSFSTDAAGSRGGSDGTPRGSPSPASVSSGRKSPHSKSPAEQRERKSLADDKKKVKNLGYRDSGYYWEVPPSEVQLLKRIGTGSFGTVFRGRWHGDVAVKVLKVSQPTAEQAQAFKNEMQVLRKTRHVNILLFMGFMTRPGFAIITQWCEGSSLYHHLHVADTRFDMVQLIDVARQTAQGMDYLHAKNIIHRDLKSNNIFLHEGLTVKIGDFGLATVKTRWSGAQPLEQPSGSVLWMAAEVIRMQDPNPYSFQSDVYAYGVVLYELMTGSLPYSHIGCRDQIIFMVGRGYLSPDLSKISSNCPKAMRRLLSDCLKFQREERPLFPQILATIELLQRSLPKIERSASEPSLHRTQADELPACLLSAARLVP
Protocol: as §1

BRAF^V600E = target: T3, BRAF^V600E (Homo sapiens, UniProt P15056, V600E); test: Cellular degradation assay, Western blot of BRAF^V600E; type: cell-based
T3 construct: A375 or SK-Mel-28 cells were obtained from ATCC; host or cells: A375 or SK-Mel-28
Protocol: (§2) Cell culture and compound treatment: A375 or SK-Mel-28 cells were obtained from ATCC and cultured in Dulbecco's Modified Eagle Media (DMEM) supplemented with 10% FBS, penicillin and streptomycin, at 37° C., 5% CO2. Cells grown in 6-well plates were treated for 24 hours with test compounds (solubilized in DMSO) or 0.1% DMSO vehicle control. Cells were harvested by first washing with 1× phosphate-buffered saline (PBS), then scrapping into 1 ml of PBS supplemented with 1 mM phenylmethylsulfonylflouride (PMSF). Cell pellets were obtained after a centrifugation at 300-350×g for 2 min, and immediately snap frozen in liquid nitrogen.
(§3) Cell lysis and Western blot analysis: Cell pellets were thawed and lysed by pipetting in lysis buffer (50 mM HEPES (pH 7.4), 150 mM NaCl, 5 mM EDTA, 0.5% NP-40, 5 mM NaF, 10% glycerol), with Roche protease inhibitor cocktail (5056489001) and phosphatase inhibitor cocktail PhosStop (4906845001) added fresh before use. The whole cell lysate was clarified by centrifugation at 15,000-20,000×g for 20 min and supernatant was collected. Total protein concentration in the clarified lysate was determination by Bradford assay (Bio-Rad), and 30-50 ug of protein was separated through SDS-PAGE, transferred onto nitrocellulose membrane and subject to standard immunoblotting protocol. Band intensities were quantified by Bio-Rad Image Lab software. Antibodies to B-Raf (sc-5284), A-Raf (sc-166771), phosphor MEK1/2, pS218/222 (sc-7995), phosphor ERK1/2 (sc-7383) were purchased from Santa Cruz; C-Raf (9422), MEK1/2 (9122), ERK1/2 (9102) from Cell Signaling; p27 (610242) from BD Biosciences. Antibody to the loading control α-tubulin was obtained from Sigma-Aldrich (6199).

BRAF = BRAF (Homo sapiens, UniProt P15056); test: Kinase inhibition assay BRAF (similar protocol); type: biochemical
Protocol: as §1

[3] = system: MEK and ERK kinase phosphorylation; test: Immunoblot of downstream MEK and ERK kinase phosphorylation in A375 cells; type: cell-based; details: A375 human melanoma cells, 24 hrs
Protocol: as §2
as §3, with “Antibodies to B-Raf (sc-5284), A-Raf (sc-166771), phosphor MEK1/2, pS218/222 (sc-7995), phosphor ERK1/2 (sc-7383) were purchased from Santa Cruz; C-Raf (9422), MEK1/2 (9122), ERK1/2 (9102) from Cell Signaling; p27 (610242) from BD Biosciences. Antibody to the loading control α-tubulin was obtained from Sigma-Aldrich (6199).” left out

ARAF [4] = target: T2, ARAF; test: Cellular degradation assay, Western blot of ARAF; type: cell-based; design: host or cells: A375; details: A375 human melanoma cells, 24 hrs; negative control 100 nM, PROTAC 0 to 4000 nM
Protocol: as §2
as §3, with “Antibodies to B-Raf (sc-5284), A-Raf (sc-166771), phosphor MEK1/2, pS218/222 (sc-7995), phosphor ERK1/2 (sc-7383) were purchased from Santa Cruz; C-Raf (9422), MEK1/2 (9122), ERK1/2 (9102) from Cell Signaling; p27 (610242) from BD Biosciences. Antibody to the loading control α-tubulin was obtained from Sigma-Aldrich (6199).” left out

CRAF [5] = target: T1, CRAF; test: Cellular degradation assay, Western blot of CRAF; type: cell-based; design: host or cells: A375; details: A375 human melanoma cells, 24 hrs; negative control 100 nM, PROTAC 0 to 4000 nM
Protocol: as §2
as §3, with “Antibodies to B-Raf (sc-5284), A-Raf (sc-166771), phosphor MEK1/2, pS218/222 (sc-7995), phosphor ERK1/2 (sc-7383) were purchased from Santa Cruz; C-Raf (9422), MEK1/2 (9122), ERK1/2 (9102) from Cell Signaling; p27 (610242) from BD Biosciences. Antibody to the loading control α-tubulin was obtained from Sigma-Aldrich (6199).” left out

[6] = A375 human melanoma cells, 24 hrs
[7] = Table 1, cells treated 24 hours, Western blot
[8] = Table 1, cells treated 24 hours, Western blot, read-out: DC50(nM) BRAF^V600E

T3 sequence (P15056 whole entry V600E): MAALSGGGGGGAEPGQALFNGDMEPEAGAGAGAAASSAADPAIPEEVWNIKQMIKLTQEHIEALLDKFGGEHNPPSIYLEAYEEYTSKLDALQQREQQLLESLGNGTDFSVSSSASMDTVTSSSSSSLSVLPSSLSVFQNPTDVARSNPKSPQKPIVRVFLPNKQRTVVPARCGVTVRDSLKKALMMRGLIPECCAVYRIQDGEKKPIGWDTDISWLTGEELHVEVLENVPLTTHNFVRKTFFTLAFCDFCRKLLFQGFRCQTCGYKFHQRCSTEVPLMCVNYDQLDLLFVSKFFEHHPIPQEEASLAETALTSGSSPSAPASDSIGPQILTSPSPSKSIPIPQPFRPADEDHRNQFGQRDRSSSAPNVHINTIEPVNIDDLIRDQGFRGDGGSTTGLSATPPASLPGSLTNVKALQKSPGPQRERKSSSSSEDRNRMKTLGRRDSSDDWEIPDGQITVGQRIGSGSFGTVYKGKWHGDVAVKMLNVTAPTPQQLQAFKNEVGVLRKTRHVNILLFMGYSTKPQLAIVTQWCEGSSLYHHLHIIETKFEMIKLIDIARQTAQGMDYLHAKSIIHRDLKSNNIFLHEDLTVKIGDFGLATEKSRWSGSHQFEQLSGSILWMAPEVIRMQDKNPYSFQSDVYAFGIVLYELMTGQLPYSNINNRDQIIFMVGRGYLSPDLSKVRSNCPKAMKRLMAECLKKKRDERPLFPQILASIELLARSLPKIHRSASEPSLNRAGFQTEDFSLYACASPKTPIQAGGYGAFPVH
Chain of B-Raf (V600E) (h) (P15056 whole entry V600E): as above
T1 sequence (P04049 whole entry): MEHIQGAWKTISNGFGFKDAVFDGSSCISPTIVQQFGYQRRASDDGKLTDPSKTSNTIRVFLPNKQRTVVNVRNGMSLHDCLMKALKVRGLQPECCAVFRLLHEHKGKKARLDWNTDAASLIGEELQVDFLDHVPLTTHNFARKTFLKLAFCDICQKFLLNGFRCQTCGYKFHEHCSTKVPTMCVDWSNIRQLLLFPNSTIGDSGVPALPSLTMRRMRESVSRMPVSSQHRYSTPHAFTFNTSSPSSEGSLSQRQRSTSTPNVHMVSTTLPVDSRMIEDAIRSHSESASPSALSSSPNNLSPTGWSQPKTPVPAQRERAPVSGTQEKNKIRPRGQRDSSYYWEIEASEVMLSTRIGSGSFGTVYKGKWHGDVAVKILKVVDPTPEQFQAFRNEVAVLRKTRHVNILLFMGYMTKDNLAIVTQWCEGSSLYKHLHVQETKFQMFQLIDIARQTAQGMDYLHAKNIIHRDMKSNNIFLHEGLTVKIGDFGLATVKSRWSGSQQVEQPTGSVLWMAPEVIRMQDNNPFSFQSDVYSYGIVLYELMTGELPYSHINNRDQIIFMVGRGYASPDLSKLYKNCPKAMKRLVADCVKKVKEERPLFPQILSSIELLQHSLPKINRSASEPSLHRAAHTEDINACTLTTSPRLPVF
Chain of BRAF (P15056 whole entry): as the sequence (P15056 whole entry V600E) above, with E600V counted along it

Row | SMILES | IC50 (B-Raf (V600E) (h)) | IC50 (CRAF [1]) | IC50 (ARAF [2]) | degradation of BRAF^V600E by immunoblot (FIGS. 4 and 5) (BRAF^V600E; [6]) | DCmax(%) BRAF^V600E (BRAF^V600E; [7]) | DC50 (BRAF^V600E; [8]) | degradation of BRAF^V600E by immunoblot (FIG. 3A) (BRAF^V600E; dabrafenib 20 nM, PROTAC inhibitors 50 nM) | IC50 (BRAF) | DCmax, degradation of BRAF^V600E kinase (FIG. 3C) (BRAF^V600E; A375 human melanoma cells, 24 hrs, 0 to 4000 nM) | DC50 (BRAF^V600E; A375 human melanoma cells, 24 hrs, 0 to 4000 nM, read-out: DC50, degradation of BRAF^V600E kinase (FIG. 3C)) | IC50 ([3]; A-375, read-out: BRAF^V600E IC50, inhibition of downstream MEK and ERK kinase phosphorylation, 0 to 4000 nM) | degradation activity on ARAF (FIG. 3C) (ARAF [4]) | degradation activity on CRAF (FIG. 3C) (CRAF [5]) | degradation of BRAF^V600E by immunoblot (FIGS. 4 and 5) (BRAF^V600E; A375 human melanoma cells, 24 hrs, listed as Pmd-PEG3-Dabrafenib#1) | inhibition of downstream MEK and ERK kinase phosphorylation (FIG. 3C) ([3]; negative control 100 nM, PROTAC 0 to 4000 nM)
1 | CCCS(=O)(=O)Nc1ccc(F)c(-n2cc(-c3cncnc3)c3nc(N(C)C4CCN(C(=O)CCOCCOCCOCCOCCNc5cccc6c5C(=O)N(C5CCC(=O)NC5=O)C6=O)CC4)ccc32)c1F (stereo not drawn) [Entry 17, N-(3-(5-((1-(1-((2-(2,6-dioxopiperidin-3-yl)-1,3-dioxoisoindolin-4-yl)amino)-3,6,9,12-tetraoxapentadecan-15-oyl)piperidin-4-yl)(methyl)amino)-3-(pyrimidin-5-yl)-1H-pyrrolo[3,2-b]pyridin-1-yl)-2,4-difluorophenyl)propane-1-sulfonamide] | 12 nM | 167 nM | 2220 nM |  | 82% | 15 nM |  | 58 nM | 80% | 20 nM | 20 nM | not ARAF and CRAF | not ARAF and CRAF |  | inhibition of downstream MEK and ERK kinase phosphorylation
2 | CCCS(=O)(=O)Nc1ccc(F)c(-n2cc(-c3cncnc3)c3nc(N(C)C4CCN(C(=O)CCOCCOCCOCCNc5cccc6c5C(=O)N(C5CCC(=O)NC5=O)C6=O)CC4)ccc32)c1F (stereo not drawn) [Entry 16, N-(3-(5-((1-(3-(2-(2-(2-((2-(2,6-dioxopiperidin-3-yl)-1,3-dioxoisoindolin-4-yl)amino)ethoxy)ethoxy)ethoxy)propanoyl)piperidin-4-yl)(methyl)amino)-3-(pyrimidin-5-yl)-1H-pyrrolo[3,2-b]pyridin-1-yl)-2,4-difluorophenyl)propane-1-sulfonamide] | 65 nM | 532 nM | > 10000 nM | Degradation of BRAF^V600E was observed | 60% | 10 nM |  |  |  |  |  |  |  |  | 
3 | CCCS(=O)(=O)Nc1ccc(F)c(-n2cc(-c3cncnc3)c3nc(N(C)C4CCN(C(=O)CCOCCOCCOCCNc5cccc6c5C(=O)N(C5CCC(=O)NC5=O)C6=O)CC4)ccc32)c1F (stereo not drawn) [Entry 2] | 47 nM | 22 nM | > 10000 nM |  | 0% |  |  |  |  |  |  |  |  | No degradation | 

Continued, in another order:

Row | IC50 (B-Raf (V600E) (h)) | IC50 (CRAF [1]) | IC50 (ARAF [2]) | degradation of BRAF^V600E by immunoblot (FIGS. 4 and 5) (BRAF^V600E; [6]) | DCmax(%) BRAF^V600E (BRAF^V600E; [7]) | DC50 (BRAF^V600E; [8]) | degradation of BRAF^V600E by immunoblot (FIG. 3A) (BRAF^V600E; dabrafenib 20 nM, PROTAC inhibitors 50 nM) | IC50 (BRAF) | DCmax, degradation of BRAF^V600E kinase (FIG. 3C) (BRAF^V600E; A375 human melanoma cells, 24 hrs, 0 to 4000 nM) | DC50 (BRAF^V600E; A375 human melanoma cells, 24 hrs, 0 to 4000 nM, read-out: DC50, degradation of BRAF^V600E kinase (FIG. 3C)) | IC50 ([3]; A-375, read-out: BRAF^V600E IC50, inhibition of downstream MEK and ERK kinase phosphorylation, 0 to 4000 nM) | degradation activity on ARAF (FIG. 3C) (ARAF [4]) | degradation activity on CRAF (FIG. 3C) (CRAF [5]) | degradation of BRAF^V600E by immunoblot (FIGS. 4 and 5) (BRAF^V600E; A375 human melanoma cells, 24 hrs, listed as Pmd-PEG3-Dabrafenib#1) | SMILES | inhibition of downstream MEK and ERK kinase phosphorylation (FIG. 3C) ([3]; negative control 100 nM, PROTAC 0 to 4000 nM)
4 | 83 nM | 542 nM | 6550 nM | Degradation of BRAF^V600E was observed | 60% | 100 nM |  |  |  |  |  |  |  |  | CCCS(=O)(=O)Nc1ccc(F)c(-n2cc(-c3cncnc3)c3nc(N(C)C4CCN(C(=O)CCOCCOCCOCCOCCOCCOCCNc5cccc6c5C(=O)N(C5CCC(=O)NC5=O)C6=O)CC4)ccc32)c1F (stereo not drawn) [Entry 19, N-(3-(5-((1-(1-((2-(2,6-dioxopiperidin-3-yl)-1,3-dioxoisoindolin-4-yl)amino)-3,6,9,12,15,18-hexaoxaheneicosan-21-oyl)piperidin-4-yl)(methyl)amino)-3-(pyrimidin-5-yl)-1H-pyrrolo[3,2-b]pyridin-1-yl)-2,4-difluorophenyl)propane-1-sulfonamide] | 
5 |  |  |  |  |  |  | no degradation |  |  |  |  |  |  |  | CC(C)(C)c1nc(-c2cccc(NS(=O)(=O)c3c(F)cccc3F)c2F)c(-c2ccnc(N)n2)s1 [dabrafenib, reference compound] | 
